# Experimental data: patent US20220160703A1, “TUMOR-SELECTIVE COMBINATION THERAPY” (The Board of Regents of The University of Texas System, priority 2019, published 2022)
# Tested on: tumor-infiltrating immune cells
# Test: Flow cytometric analysis of immune cells in tumor and organs
# Format: in vivo, mice
# Protocol: (FIGS. 11A-B) Single cells were conducted from MC38 (FIG. 11A) or TC-1 (FIG. 11B) tumor tissues after 3 days of β-lap treatment. The frequency of CD11b+ Gr1+ cells were then analyzed by flow cytometry. (FIGS. 11C-D) C57BL/6 WT mice (n=5/group) were inoculated subcutaneously (s.c.) with 6×10^5 MC38 (FIG. 11C) or 1×10^5 TC-1 (FIG. 11D) cells and treated intratumorally (i.t.) with 0.3 (mg) of β-lap or vehicle on day 9, day 12, and day 15. Anti-Ly6G blocking Ab (200 μg) were intraperitoneally administered twice a week, starting on day 8. Tumor growth was monitored twice a week. Data are shown as mean±SEM from two to three independent experiments. **P<0.01, ***P<0.001, ****P<0.0001 determined by two-way ANOVA.
# (FIG. 18A) B16 NQO1 #1 cells were subcutaneously transplanted into C57BL/6 WT and Rag1KO mice (n=5/group), respectively. Tumor bearing mice were treated with β-lap (0.3 mg, i.t.) every other day for four times. (FIG. 18B) Changes of the immune cells in the tumor microenvironment 7 days after β-lap treatment. […] 7 days after the last treatment, tumor tissue was removed and digested, and immune cells were analyzed with flow cytometer (unpaired student t-test was used to analyze the significance of changes, *P<0.05, **P<0.01). […]
# 6×10^5 MC38 cells were subcutaneously transplanted into C57BL/6 mice (n=3/group). […] (FIG. 23B) Quantification of immune populations from vehicle and IB-DNQ treated tumors. […] CFSE labeled splenocytes were treated with lethal dose IB-DNQ for 4 h followed by washing and stimulation with anti-CD3 (1 μg/ml) and anti-CD28 (2 μg/ml) for 48 h, proliferative CD8 T cells were then analyzed by flow cytometry assay. […] 24 h later, cell death was analyzed by flow cytometry. […]
# Naïve (n=5/group) and IB-DNQ-cured MC38 tumor-free (n=7/group) C57BL/6 mice were re-challenged subcutaneously with 3×10^6 MC38 cells on the opposite site from the primary tumor 60 days after complete rejection. […] (FIG. 26F) DCs from LNs of tumor-free (TF) or tumor-bearing mice were stimulated with antigen induced by IB-DNQ (1 μM) for 5 h, then CD44 expression on DCs was assessed.
smiles,measurement,setting,value
"CC1(C)CCC2=C(O1)c1ccccc1C(=O)C2=O [β-lap, β-lapachone]",T cells in treated tumors,"MC38, 7 days after β-lap 0.3 mg i.t. two times",increase in CD4^+ and CD8^+ T cells
same,"CD45+ cells, CD8+ T cells and CD8+ T cell:Treg cell ratio in tumor tissues","MC38-OVA, 12 days after initial treatment",significant increase
same,tumor-infiltrating neutrophils (CD11b+Gr1+),after 3 days of β-lap treatment,significantly increased
